This is an account of results in publication PMC3898838, “Design, Synthesis, and Biological Evaluation of an Allosteric Inhibitor of HSET that Targets Cancer Cells with Supernumerary Centrosomes” (Chemistry & Biology, 2013).

One assay has as its system BT549 cells. Kind of assay: IncuCyte live-cell imaging, proliferation. The class given is cell-based, human. Conditions: BT549, 100-350 μM. The source says: (§1) In order to ascertain whether CW069 could more broadly reduce proliferation in a range of cancer cells, we carried out IncuCyte live-cell imaging on N1E-115 cells and BT549 (with lower but marked centrosome amplification) and MCF-7 (with normal centrosome numbers) breast cancer cells. Cells were imaged for 21 hr prior to treatment with DMSO control (0.2%) and various concentrations of CW069, and then imaged for a further 36 hr. […] It could also be due to another direct or indirect effect, and the role of HSET in the survival of cancer cells with normal centrosome numbers remains to be fully understood.
(§2) NHDF cells were obtained from PromoCell, and the N1E-115 and HeLa cells were obtained from ATCC/LGC Standards. The BT549, MCF-7 and MDA-MB-231 cells were kind gifts from the Caldas laboratory (CRUK Cambridge Institute) and were originally obtained from ATCC/LGC. All human cells were verified by STR genotyping and all tested negative for mycoplasma. […] Fluorescence was quantified using an Infinite 200 PRO plate-reader (Tecan) at a wavelength of 545 nm. […]
(§3) For live-cell imaging, plated cells were imaged prior to treatment for 24 hr and then after treatment for 72 hr. […] Data were analyzed as the percentage of original cell confluency in order to directly compare each compound treatment with the DMSO control.

A further assay concerns MCF-7 cells. Kind of assay: IncuCyte live-cell imaging, proliferation. To be noted: MCF-7, 100-350 μM. The format is cell-based, human.
Source text: as §1, §2, §3

Molecules are shown by their SMILES.

Consider `O=C(O)c1cc(I)ccc1NC(=O)[C@H](Cc1ccccc1)NCc1ccccc1` [CW069], for which the cell proliferation entry is “antiproliferative effect” in the assay with BT549 cells and “does reduce their proliferation” in the assay with MCF-7 cells.
